Literature values as cited in US20160374909A9, “Treating Cariogenic diseased oral biofilm with elevated pH” (Dental Alliance Holdings, LLC dba Oral Bio Tech, priority 2006, published 2016).

Key:
Mutans streptococci = conditions: rinse or varnish
Lactobacilli = conditions: rinse or varnish

[H]/N=C(\N/C(=N/[H])NCCCCCCNC(=N)NC(=N)Nc1ccc(Cl)cc1)Nc1ccc(Cl)cc1 [chlorhexidine]
effect against Mutans streptococci (Mutans streptococci): effective | effect against Lactobacilli (Lactobacilli): no effect
